The source of these data is US11566007B2, “Ras inhibitors” (Revolution Medicines, Inc., priority 2019, dated 2023).

Read-outs that look alike come from different tables or passages of the source. Bounds are passed on as bounds.

For one assay, the target named is NRAS WT (Homo sapiens (Human), UniProt P01111+P62937). The assay can be described thus: Ras-Raf (BRAF RBD) disruption / FRET / MOA assay, NRAS WT. It is filed as biochemical. Particulars: read-out: IC50* NRAS WT FRET data. The essentials: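 TR-FRET disruption of nucleotide-loaded Ras binding to BRAF RBD via compound-driven ternary complex with cyclophilin A. Compound as 10-point 3-fold series from 30 μM final, 3 h at 25° C, then anti-His Eu-W1024 (10 nM) and anti-GST allophycocyanin (50 nM) for 1.5 h. IC50 from decreased FRET ratio versus DMSO.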
Chain of NRAS WT (P01111 whole entry): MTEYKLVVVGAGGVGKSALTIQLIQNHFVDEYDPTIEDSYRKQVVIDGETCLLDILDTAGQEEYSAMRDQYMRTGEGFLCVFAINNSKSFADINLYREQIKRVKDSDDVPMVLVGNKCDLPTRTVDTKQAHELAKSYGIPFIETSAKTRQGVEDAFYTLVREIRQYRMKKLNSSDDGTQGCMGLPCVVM
Chain of NRAS WT (P62937 whole entry): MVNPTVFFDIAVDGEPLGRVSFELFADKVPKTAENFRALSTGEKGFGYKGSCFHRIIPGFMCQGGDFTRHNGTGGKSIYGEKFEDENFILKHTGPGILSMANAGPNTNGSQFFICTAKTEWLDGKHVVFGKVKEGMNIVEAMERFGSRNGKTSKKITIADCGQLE

The test system of the next assay is NCI-H358 (K-Ras G12C). The assay can be described thus: CellTiter-Glo cell viability assay, NCI-H358. It is filed as cell-based, human. Particulars: Homo sapiens, NCI-H358, 120 h, class symbols. The essentials:
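Compounds dispensed directly onto seeded K-Ras mutant cells; plates read on day 5 after ~30 min equilibration to room temperature, by CellTiter-Glo luminescence. Signal normalized as (sample/mean DMSO)×100, then fitted to a four-parameter logistic curve.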
Background: In ATP-based viability assays light output follows the ATP content of the culture.

Assay [1] has as its system NCI-H358 cells (K-Ras G12C). In words: Potency assay: pERK in NCI-H358 cells. It is filed as cell-based, human. Particulars: Homo sapiens. In outline: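 pERK decrease read by AlphaLISA SureFire p-ERK1/2 or In-Cell Western after 4 h compound exposure at 37 °C, 5% CO2.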
The next assay addresses KRAS G12V (Homo sapiens (Human), UniProt P01116+P62937, G12V). In words: Ras-Raf (BRAF RBD) disruption / FRET / MOA assay, KRAS G12V. It is filed as biochemical. Particulars: read-out: IC50* KRAS G12V FRET data. The essentials:
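Compounds, top final concentration 30 μM in 10-point 3-fold series, incubated 3 hours at 25° C with nucleotide-loaded Ras, cyclophilin A and BRAF RBD.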

Where [2] appears, read: NCI-H358, 5-day treatment, read-out: Additional H358 Cell Viability assay data (K-Ras G12C, IC50).
[3] abbreviates: NCI-H358, H358 KRAS G12C, read-out: pERK EC50.

Chain of KRAS G12V (P01116-2 other isoform, or with tags, fused parts or gaps G12V): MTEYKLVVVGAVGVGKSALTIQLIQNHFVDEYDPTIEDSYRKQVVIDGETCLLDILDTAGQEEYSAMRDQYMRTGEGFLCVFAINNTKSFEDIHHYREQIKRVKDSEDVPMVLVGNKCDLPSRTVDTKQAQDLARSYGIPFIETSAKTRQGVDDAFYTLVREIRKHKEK
Chain of KRAS G12V (P62937 whole entry): as the sequence (P62937 whole entry) above

By IC50 is commonly meant the concentration that gives 50% inhibition. As usually defined, the EC50 is the concentration needed to bring the measured effect to its halfway point. For `C=CC(=O)N1CC[C@H](C(=O)N(C)[C@H](C(=O)N[C@H]2Cc3cccc(c3)-c3ccc4c(c3)c(c(-c3cccnc3[C@H](C)OC)n4CC3COC3)CC(C)(C)COC(=O)[C@@H]3CCCN(N3)C2=O)C(C)C)C1` (atropisomer, axis not shown) [Example A481], the half-maximal inhibitory concentration (IC50) is 1 to 10 µM on NRAS WT, 0.01 to 0.1 µM in the assay with NCI-H358 (K-Ras G12C) (setting [2]) and 1 to 10 µM on KRAS G12V. Further, in assay [1] (setting [3]), the EC50 is under 5 µM.

In the case of `C=CC(=O)N1CC[C@H](C(=O)N2CCCCC[C@H]2C(=O)N[C@H]2Cc3nc(cs3)-c3ccc4c(c3)c(c(-c3cccnc3[C@H](C)OC)n4CC)CC(C)(C)COC(=O)[C@@H]3CCCN(N3)C2=O)C1` (atropisomer, axis not shown) [Example A495], the figures for the half-inhibitory concentration (IC50) at NRAS WT, in the assay with NCI-H358 (K-Ras G12C) (setting [2]) and on KRAS G12V were 1 to 10 µM, 0.01 to 0.1 µM and 1 to 10 µM, respectively. Moreover, the EC50 in assay [1] (setting [3]) was under 5 µM.

Consider `C=CC(=O)N(C)CCN1CCN(C(=O)N(C)[C@H](C(=O)N[C@H]2Cc3cccc(c3)-c3ccc4c(c3)c(c(-c3cccnc3[C@H](C)OC)n4CC)CC(C)(C)COC(=O)[C@@H]3CCCN(N3)C2=O)C(C)C)CC1` (atropisomer, axis not shown) [Example A539], for which the IC50 on NRAS WT, in the assay on NCI-H358 (K-Ras G12C) (setting [2]) and on KRAS G12V was 0.1 to 1 µM in each case. In assay [1] (setting [3]), the concentration giving a half-maximal response (EC50) is under 5 µM.

In the case of `C=CC(=O)N1CCOC2(CCN(C(=O)N(C)[C@H](C(=O)N[C@H]3Cc4cc(C(F)F)cc(n4)-c4ccc5c(c4)c(c(-c4cccnc4[C@H](C)OC)n5CC(F)(F)F)CC(C)(C)COC(=O)[C@@H]4CCCN(N4)C3=O)C(C)C)CC2)C1` (atropisomer, axis not shown) [Example A541], the 50% inhibitory concentration (IC50) at NRAS WT lay in the range of 0.1 to 1 µM; in the assay with NCI-H358 (K-Ras G12C) (setting [2]), 0.01 to 0.1 µM; at KRAS G12V it was 1 to 10 µM. Moreover, the 50% effective concentration (EC50) in assay [1] (setting [3]) was under 5 µM.

Regarding `C=CC(=O)N1CCC[C@]12CCN(C(=O)N(C)[C@H](C(=O)N[C@H]1Cc3nc(cs3)-c3ccc4c(c3)c(c(-c3cccnc3[C@H](C)OC)n4CC)CC(C)(C)COC(=O)[C@@H]3CCCN(N3)C1=O)C(C)C)C2` (atropisomer, axis not shown) [Example A548], the 50% inhibitory concentration (IC50) on NRAS WT, in the assay with NCI-H358 (K-Ras G12C) (setting [2]) and on KRAS G12V was 0.1 to 1 µM each time. Besides, the EC50 in assay [1] (setting [3]) was under 5 µM.

Take `C=CC(=O)N(C)CCN1CCN(C(=O)N(C)[C@H](C(=O)N[C@H]2Cc3cccc(c3)-c3ccc4c(c3)c(c(-c3cccnc3[C@H](C)OC)n4CC)CC(C)(C)COC(=O)[C@@H]3CCCN(N3)C2=O)C(C)C)C[C@H]1C` (atropisomer, axis not shown) [Example A553]: the values for the IC50 on NRAS WT, in the assay on NCI-H358 (K-Ras G12C) (setting [2]) and at KRAS G12V were 1 to 10 µM, 0.1 to 1 µM and 1 to 10 µM, respectively. For the same compound, in assay [1] (setting [3]), the EC50 is under 5 µM.

For the compound `C=CC(=O)N1CCC2(CCN(C(=O)N(C)[C@H](C(=O)N[C@H]3Cc4cccc(c4)-c4ccc5c(c4)c(c(-c4cccnc4[C@H](C)OC)n5CC)CC(C)(C)COC(=O)[C@@H]4CCCN(N4)C3=O)C(C)C)CC2)C1` (atropisomer, axis not shown) [Example A554], the IC50 on NRAS WT, in the assay with NCI-H358 (K-Ras G12C) (setting [2]) and on KRAS G12V was 0.1 to 1 µM throughout. In addition, in assay [1] (setting [3]), the EC50 is under 5 µM.

Regarding `C=CC(=O)N1CC[C@]2(C1)OCN([C@H](C(=O)N[C@H]1Cc3cc(cc(C(F)F)c3)-c3ccc4c(c3)c(c(-c3cccnc3[C@H](C)OC)n4CC)CC(C)(C)COC(=O)[C@@H]3CCCN(N3)C1=O)C(C)C)C2=O` (atropisomer, axis not shown) [Example A557], the concentration for half-maximal inhibition (IC50) at NRAS WT was 0.1 to 1 µM; in the assay with NCI-H358 (K-Ras G12C) (setting [2]), 0.1 to 1 µM; on KRAS G12V it was 1 to 10 µM. In assay [1] (setting [3]), the EC50 was under 5 µM.

Consider `CCn1c(-c2cccnc2[C@H](C)OC)c2c3cc(ccc31)-c1cccc(c1)C[C@H](NC(=O)[C@H](C(C)C)N1CC[C@]3(CCN(C(=O)C#C[C@H]4COCCN4C4COC4)C3)C1=O)C(=O)N1CCC[C@H](N1)C(=O)OCC(C)(C)C2` (atropisomer, axis not shown) [Example A568], for which the IC50 on NRAS WT was over 10 µM; with NCI-H358 (K-Ras G12C) (setting [2]), 0.01 to 0.1 µM; on KRAS G12V it was over 10 µM. The EC50 in assay [1] (setting [3]) is under 5 µM.

As to `CCn1c(-c2cccnc2[C@H](C)OC)c2c3cc(ccc31)-c1cccc(c1)C[C@H](NC(=O)[C@H](C(C)C)N1CC[C@]3(CCN(C(=O)C#C[C@@H]4COCCN4C)C3)C1=O)C(=O)N1CCC[C@H](N1)C(=O)OCC(C)(C)C2` (atropisomer, axis not shown) [Example A569], the IC50 was over 10 µM at NRAS WT; 0.01 to 0.1 µM in the assay with NCI-H358 (K-Ras G12C) (read-out: Additional H358 Cell Viability assay data (K-Ras G12C, IC50, uM), NCI-H358, 5-day treatment); over 10 µM at KRAS G12V. Also, the concentration for a half-maximal effect (EC50) in assay [1] (NCI-H358, read-out: pERK EC50) was under 5 µM.

`C=CC(=O)N(C)CCN1CCN(C(=O)N(C)[C@H](C(=O)N[C@H]2Cc3cccc(c3)-c3ccc4c(c3)c(c(-c3cccnc3[C@H](C)OC)n4CC)CC(C)(C)COC(=O)[C@@H]3CCCN(N3)C2=O)C(C)C)C[C@@H]1C` (atropisomer, axis not shown) [Example A570]: the IC50 at NRAS WT, with NCI-H358 (K-Ras G12C) (setting [2]) and at KRAS G12V was 0.1 to 1 µM each time. Further, in assay [1] (setting [3]), the EC50 is under 5 µM.

On to `C=CC(=O)N1CCO[C@H]2CN(C(=O)N(C)[C@H](C(=O)N[C@H]3Cc4nc(n(C)n4)-c4ccc5c(c4)c(c(-c4cccnc4[C@H](C)OC)n5CC(F)(F)F)CC(C)(C)COC(=O)[C@@H]4CCCN(N4)C3=O)C(C)C)C[C@H]21` (atropisomer, axis not shown) [Example A575], for which the IC50 at NRAS WT lay within 0.1 to 1 µM; with NCI-H358 (K-Ras G12C) (setting [2]) it was 0.01 to 0.1 µM; on KRAS G12V, 1 to 10 µM. Moreover, the EC50 in assay [1] (setting [3]) is under 5 µM.

Take `C=CC(=O)N1CCO[C@]2(CCN(C(=O)N(C)[C@H](C(=O)N[C@H]3Cc4nc(cs4)-c4ccc5c(c4)c(c(-c4cccnc4[C@H](C)OC)n5CC(F)(F)F)CC(C)(C)COC(=O)[C@@H]4CCCN(N4)C3=O)C(C)C)C2)C1` (atropisomer, axis not shown) [Example A593]: the concentration for half-maximal inhibition (IC50) on NRAS WT was in the range of 0.1 to 1 µM; in the assay on NCI-H358 (K-Ras G12C) (setting [2]), 0.1 to 1 µM; on KRAS G12V it was 1 to 10 µM. In addition, the concentration giving a half-maximal response (EC50) in assay [1] (setting [3]) was under 5 µM.

Turning to `CCn1c(-c2cccnc2[C@H](C)OC)c2c3cc(ccc31)-c1csc(n1)C[C@H](NC(=O)[C@H](C(C)C)N(C)C(=O)N1CCC13CN(C(=O)/C=C/CN(C)C)C3)C(=O)N1CCC[C@H](N1)C(=O)OCC(C)(C)C2` (atropisomer, axis not shown) [Example A598], the 50% inhibitory concentration (IC50) on NRAS WT was in the range of 0.01 to 0.1 µM; with NCI-H358 (K-Ras G12C) (setting [2]) it was 0.01 to 0.1 µM; at KRAS G12V, 0.1 to 1 µM. Besides, in assay [1] (setting [3]), the EC50 is under 5 µM.

Regarding `C=CC(=O)N1CCOC2(CCN(C(=O)N(C)[C@H](C(=O)N[C@H]3Cc4cccc(n4)-c4ccc5c(c4)c(c(-c4cccnc4[C@H](C)OC)n5CC(F)(F)F)CC(C)(C)COC(=O)[C@@H]4CCCN(N4)C3=O)C(C)C)CC2)C1` (atropisomer, axis not shown) [Example A607, 4-acryloyl-N-((2S)-1-(((6^3S,4S)-1^2-(2-((S)-1-methoxyethyl)pyridin-3-yl)-10,10-dimethyl-5,7-dioxo-1^1-(2,2,2-trifluoroethyl)-6^1,6^2,6^3,6^4,6^5,6^6-hexahydro-1^1H-8-oxa-1(5,3)-indola-6(1,3)-pyridazina-2(2,6)-pyridinacycloundecaphane-4-yl)amino)-3-methyl-1-oxobutan-2-yl)-N-methyl-1-oxa-4,9-diazaspiro[5.5]undecane-9-carboxamide], the 50% inhibitory concentration (IC50) on NRAS WT was in the range of 0.1 to 1 µM; in the assay with NCI-H358 (K-Ras G12C) (setting [2]) it was 0.01 to 0.1 µM; on KRAS G12V, 1 to 10 µM. Further, the 50% effective concentration (EC50) in assay [1] (setting [3]) was under 5 µM.

Consider `CCn1c(-c2cccnc2[C@H](C)OC)c2c3cc(ccc31)-c1csc(n1)C[C@H](NC(=O)[C@H](C(C)C)N(C)C(=O)N1CCC13CN(C(=O)/C=C/CN1CCOCC1)C3)C(=O)N1CCC[C@H](N1)C(=O)OCC(C)(C)C2` (atropisomer, axis not shown) [Example A611], for which the IC50 on NRAS WT was in the range of 0.1 to 1 µM; with NCI-H358 (K-Ras G12C) (setting [2]) it was 0.01 to 0.1 µM; at KRAS G12V, 0.1 to 1 µM. For the same compound, the EC50 in assay [1] (setting [3]) was under 5 µM.

As for `CCn1c(-c2cccnc2[C@H](C)OC)c2c3cc(ccc31)-c1cccc(c1)C[C@H](NC(=O)[C@@H](COC1CN(C(=O)C#CC(C)(C)N(C)C3CC3)C1)C(C)C)C(=O)N1CCC[C@H](N1)C(=O)OCC(C)(C)C2` (atropisomer, axis not shown) [Example A613], the values for the IC50 on NRAS WT, in the assay with NCI-H358 (K-Ras G12C) (setting [2]) and at KRAS G12V were over 10 µM, 0.01 to 0.1 µM and over 10 µM, respectively. In assay [1] (setting [3]), the EC50 was under 5 µM.

As for `CCn1c(-c2cccnc2[C@H](C)OC)c2c3cc(ccc31)N1CCC[C@@H](C[C@H](NC(=O)[C@H](C(C)C)N(C)C(=O)[C@H]3CCN(C(=O)C#CC(C)(C)N4CCC4)C3)C(=O)N3CCC[C@H](N3)C(=O)OCC(C)(C)C2)C1` (atropisomer, axis not shown) [Example A617], the IC50 was over 10 µM on NRAS WT, 0.01 to 0.1 µM in the assay with NCI-H358 (K-Ras G12C) (setting [2]) and over 10 µM on KRAS G12V. Besides, in assay [1] (setting [3]), the 50% effective concentration (EC50) is under 5 µM.
